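A five-concentration, 48-hour dose response in 96-well plates underlies each endpoint, interpolated linearly between surrounding concentrations. TGI denotes the concentration required for complete inhibition of growth.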
Tests used:
Experiment in all cases: growth of human tumour cells (NCI), 48 h
SW-620 colon = system: SW-620 colon
SN12C renal = system: SN12C renal
HOP-92 NSCLC = system: HOP-92 NSCLC
786-0 renal = system: 786-0 renal
OVCAR-3 ovarian = system: OVCAR-3 ovarian
SK-MEL-28 melanoma = system: SK-MEL-28 melanoma
IGROV1 ovarian = system: IGROV1 ovarian
RPMI-8226 leukemia = system: RPMI-8226 leukemia
HCC-2998 colon = system: HCC-2998 colon
LOX IMVI melanoma = system: LOX IMVI melanoma
HOP-62 NSCLC = system: HOP-62 NSCLC
KM12 colon = system: KM12 colon
HCT-116 colon = system: HCT-116 colon
UO-31 renal = system: UO-31 renal
SNB-19 CNS = system: SNB-19 CNS
A498 renal = system: A498 renal
NCI-H226 lung = system: NCI-H226 lung

SMILES | TGI (SW-620 colon) [µM] | TGI (SN12C renal) [µM] | TGI (HOP-92 NSCLC) [µM] | TGI (786-0 renal) [µM] | TGI (OVCAR-3 ovarian) [µM] | TGI (SK-MEL-28 melanoma) [µM] | TGI (IGROV1 ovarian) [µM] | TGI (RPMI-8226 leukemia) [µM] | TGI (HCC-2998 colon) [µM] | TGI (LOX IMVI melanoma) [µM] | TGI (HOP-62 NSCLC) [µM] | TGI (KM12 colon) [µM] | TGI (HCT-116 colon) [µM] | TGI (UO-31 renal) [µM] | TGI (SNB-19 CNS) [µM] | TGI (A498 renal) [µM] | TGI (NCI-H226 lung) [µM]
C=CCN(c1cc(O)c2c(c(C)cn2S(=O)(=O)c2ccccc2)c1[N+](=O)[O-])S(C)(=O)=O | > 100 | > 100 | > 100 | > 100 | > 100 | > 100 | > 100 | > 100 | > 100 | > 100 | > 100 | > 100 | > 100 | > 100 | > 100 | > 100 | > 100
CC(C)=CCC[C@@H](C)C1=C(N)C(O)=C(C)C(=O)C1=O | > 75 | > 75 | > 75 | > 75 | > 75 | > 75 | > 75 | > 75 | > 75 | > 75 | > 75 | > 75 | > 75 | > 75 | > 75 | > 75 | > 75
O=C(Nc1ccc(Cl)cc1Cl)C1C(=O)OC2(CCCCC2)OC1=O | 25.3 | 49.4 | 28.1 | 30.3 | 16.1 | 23.5 | 64.1 | 35.7 | 29.3 | 20.4 | 17.3 | 28.4 | 23.3 | 15.1 | > 100 | 31.5 | 29.3
COc1ccc(NC(=S)c2ccc([N+](=O)[O-])o2)cc1 | 2.9 | 4.85 | 30.6 | 4.99 | 4.42 | 12.5 | 8.56 | 4.72 | 3 | 4.33 | 8.26 | 3.55 | 3.12 | 5.09 | 11.7 | 29.1 | 8.75
CC1OC(OC2C(OC(=O)[C@]34CCC(C)(C)C[C@H]3C3=CC[C@@H]5[C@@]6(C)CC[C@H](OC7OC(CO)C(O)C(O)C7OC7OC(CO)C(O)C(O)C7O)C(C)(C)[C@@H]6CC[C@@]5(C)[C@]3(C)CC4)OCC(O)C2O)C(O)C(O)C1OC1OCC(O)C(O)C1O (stereo not given in full) | 39.4 | 9.27 | 20.4 | 24 | > 100 | 6.04 | 44.9 | 31.6 | 4.79 | 37.7 | 30.8 | 21.8 | 44.8 | 6.17 | 28.9 | 6.06 | 26.2

Source: PubChem BioAssay (NCI)
